Source: patent publication US4446133A, “1-Phenyl-4-carbamoyl piperazine compounds, process for preparation thereof and utilizations thereof” (Misuitoatsu Chemicals, Inc., priority 1980, dated 1984)

Assays:
[1] = system: adjuvant arthritis; assay: Test 2: Adjuvant Arthritis Test; format: in vivo, SD male rats; details: 5 mg/kg subcutaneous, 9 times, left hind leg, * P<0.05, ** P<0.01; for Swelling Ratio (average value ± standard variation), 15 days: control 84.4 ± 9.0; for Swelling Ratio (average value ± standard variation), 18 days: control 103.2 ± 9.7; for Swelling Ratio (average value ± standard variation), 21 days: control 107.5 ± 13.3
[2] = system: Sarcoma 180; assay: Test 5: Test of Antitumor Effect to Sarcoma 180 by Subcutaneous Administration; format: in vivo, ICR female mice; details: 20 mg/kg subcutaneous; for D: average diameter of tumor, 2 weeks: control 10.8; for D: average diameter of tumor, 4 weeks: control 16.6; for D: average diameter of tumor, 6 weeks: control 20.3; for D: average diameter of tumor, 8 weeks: control 31.3; for D: average diameter of tumor, 10 weeks: control 40.5; for N: number of living mice, 0 weeks / N: number of living mice, 2 weeks / N: number of living mice, 4 weeks / N: number of living mice, 6 weeks / N: number of living mice, 8 weeks / N: number of living mice, 10 weeks: of 6 mice; for N: number of living mice, 0 weeks / N: number of living mice, 2 weeks / N: number of living mice, 4 weeks / N: number of living mice, 6 weeks: control 6; for N: number of living mice, 8 weeks: control 4; for N: number of living mice, 10 weeks: control 1
Description: To the control group, a physiological saline solution was similarly administered. […] The diameter D (mm) of the tumor was measured, and the average value and the number N of the living mice were determined to obtain results shown in Table 4.

[3] = system: Sarcoma 180; assay: Test 4: Test of Antitumor Effect to Sarcoma 180 by Oral Administration; format: in vivo, ICR female mice; details: for D: average diameter of tumor, 2 weeks / D: average diameter of tumor, 4 weeks / D: average diameter of tumor, 6 weeks / D: average diameter of tumor, 8 weeks / D: average diameter of tumor, 10 weeks: 100 mg/kg oral once a day, 10 days; for D: average diameter of tumor, 2 weeks: control 10.6; for D: average diameter of tumor, 4 weeks: control 15.2; for D: average diameter of tumor, 6 weeks: control 22.4; for D: average diameter of tumor, 8 weeks: control 31.5; for D: average diameter of tumor, 10 weeks: control 37.6; for N: number of living mice, 0 weeks / N: number of living mice, 2 weeks / N: number of living mice, 4 weeks / N: number of living mice, 6 weeks / N: number of living mice, 8 weeks / N: number of living mice, 10 weeks: 100 mg/kg oral, of 6 mice; for N: number of living mice, 0 weeks / N: number of living mice, 2 weeks / N: number of living mice, 4 weeks / N: number of living mice, 6 weeks: control 6; for N: number of living mice, 8 weeks: control 5; for N: number of living mice, 10 weeks: control 1
Description: To the control group, a physiological saline solution was similarly administered. The dose of the compound was 100 mg per Kg of the body weight. The diameter D (mm) of the tumor was measured, and the average value and the number N of the living mice were determined to obtain results shown in Table 4.

SMILES | D: average diameter of tumor, 2 weeks [2] | D: average diameter of tumor, 4 weeks [2] | D: average diameter of tumor, 6 weeks [2] | D: average diameter of tumor, 8 weeks [2] | D: average diameter of tumor, 10 weeks [2] | N: number of living mice, 0 weeks [2] | N: number of living mice, 2 weeks [2] | N: number of living mice, 4 weeks [2] | N: number of living mice, 6 weeks [2] | N: number of living mice, 8 weeks [2] | N: number of living mice, 10 weeks [2] | D: average diameter of tumor, 2 weeks [3] | D: average diameter of tumor, 4 weeks [3] | D: average diameter of tumor, 6 weeks [3] | D: average diameter of tumor, 8 weeks [3] | D: average diameter of tumor, 10 weeks [3] | N: number of living mice, 0 weeks [3] | N: number of living mice, 2 weeks [3] | N: number of living mice, 4 weeks [3] | N: number of living mice, 6 weeks [3] | also measured
CCN(CC)C(=O)N1CCN(c2ccc(C(C)=O)cc2)CC1 [drawing 22] |  |  |  |  |  |  |  |  |  |  |  |  |  |  |  |  |  |  |  |  | Swelling Ratio (average value ± standard variation), 15 days [1]: 61.4 ± 10.4%; Swelling Ratio (average value ± standard variation), 18 days [1]: 62.2 ± 8.8%; Swelling Ratio (average value ± standard variation), 21 days [1]: 68.4 ± 12.0%
CCN(CC)C(=O)N1CCN(c2ccc(Cl)cc2)CC1 [drawing 18] |  |  |  |  |  |  |  |  |  |  |  |  |  |  |  |  |  |  |  |  | Swelling Ratio (average value ± standard variation), 15 days [1]: 57.9 ± 11.1%; Swelling Ratio (average value ± standard variation), 18 days [1]: 55.7 ± 9.7%; Swelling Ratio (average value ± standard variation), 21 days [1]: 62.8 ± 10.9%
CCN(CC)C(=O)N1CCN(c2ccc(OC)cc2)CC1 [drawing 37] | 3.0 mm | 1.0 mm | 2.2 mm | 5.3 mm | 4.0 mm | 6 | 6 | 6 | 6 | 6 | 6 |  |  |  |  |  |  |  |  |  | 
CCN(CC)C(=O)N1CCN(c2ccc(C(=O)O)cc2)CC1 [drawing 33] |  |  |  |  |  |  |  |  |  |  |  | 6.8 mm | 3.5 mm | 4.4 mm | 2.2 mm | 0 mm | 6 | 6 | 6 | 6 | N: number of living mice, 8 weeks [3]: 6; N: number of living mice, 10 weeks [3]: 6
CCOC(=O)c1ccc(N2CCN(C(=O)N(CC)CC)CC2)cc1 [drawing 32] |  |  |  |  |  |  |  |  |  |  |  | 9.2 mm | 7.4 mm | 4.8 mm | 3.2 mm | 0 mm | 6 | 6 | 6 | 6 | N: number of living mice, 8 weeks [3]: 6; N: number of living mice, 10 weeks [3]: 6
CCN(CC)C(=O)N1CCN(c2ccc(Cl)cc2)CC1 [drawing 36] | 2.3 mm | 2.1 mm | 3.8 mm | 0 mm | 0 mm | 6 | 6 | 6 | 6 | 6 | 6 |  |  |  |  |  |  |  |  |  | 
CCN(CC)C(=O)N1CCN(c2ccc(Cl)cc2)CC1 [drawing 30] |  |  |  |  |  |  |  |  |  |  |  | 7.1 mm | 5.8 mm | 3.0 mm | 0 mm | 0 mm | 6 | 6 | 6 | 6 | N: number of living mice, 8 weeks [3]: 6; N: number of living mice, 10 weeks [3]: 6
CCN(CC)C(=O)N1CCN(c2ccccc2)CC1 [drawing 29] |  |  |  |  |  |  |  |  |  |  |  | 7.8 mm | 6.6 mm | 3.7 mm | 0.9 mm | 0 mm | 6 | 6 | 6 | 6 | N: number of living mice, 8 weeks [3]: 6; N: number of living mice, 10 weeks [3]: 6
CCN(CC)C(=O)N1CCN(c2ccccc2)CC1 [drawing 35] | 2.9 mm | 4.1 mm | 4.8 mm | 1.0 mm | 0 mm | 6 | 6 | 6 | 6 | 6 | 6 |  |  |  |  |  |  |  |  |  | 
CCN(CC)C(=O)N1CCN(c2ccc(C(=O)O)cc2)CC1 [drawing 39] | 2.1 mm | 4.4 mm | 4.8 mm | 3.9 mm | 0 mm | 6 | 6 | 6 | 6 | 6 | 6 |  |  |  |  |  |  |  |  |  | 
CCN(CC)C(=O)N1CCN(c2ccc(OC)cc2)CC1 [drawing 31] |  |  |  |  |  |  |  |  |  |  |  | 8.1 mm | 4.6 mm | 5.0 mm | 2.2 mm | 0.6 mm | 6 | 6 | 6 | 6 | N: number of living mice, 8 weeks [3]: 6; N: number of living mice, 10 weeks [3]: 6
CCN(CC)C(=O)N1CCN(c2ccc(C(C)=O)cc2)CC1 [drawing 40] | 4.1 mm | 7.7 mm | 8.5 mm | 4.3 mm | 0 mm | 6 | 6 | 6 | 6 | 6 | 6 |  |  |  |  |  |  |  |  |  | 
CCN(CC)C(=O)N1CCN(c2ccc(C(C)=O)cc2)CC1 [drawing 34] |  |  |  |  |  |  |  |  |  |  |  | 8.4 mm | 4.7 mm | 5.1 mm | 6.6 mm | 0 mm | 6 | 6 | 6 | 6 | N: number of living mice, 8 weeks [3]: 6; N: number of living mice, 10 weeks [3]: 6
CCOC(=O)c1ccc(N2CCN(C(=O)N(CC)CC)CC2)cc1 [drawing 38] | 3.2 mm | 3.4 mm | 3.8 mm | 2.5 mm | 0.8 mm | 6 | 6 | 6 | 6 | 6 | 6 |  |  |  |  |  |  |  |  |  | 
